In publication PMC3169616, “Unique Residues Involved in Activation of the Multitasking Protease/Chaperone HtrA from Chlamydia trachomatis” (PLoS ONE, 2011):
“Also recorded” adds a separate entry of the source.

Assays:
CtHtrA [1] = target: T1, CtHtrA (Chlamydia trachomatis serovar D, UniProt P18584); assay: Activation of CtHtrA cleavage of Bcas1 substrate by added activator; assay type: biochemical; details: substrate Bcas1 (MCA-ENLHLPLPIIF-DNP), fluorimetric, 37°C
T1 construct: His-tag; made in house; host or cells: E. coli BL21 (DE3), plasmid pETHtrA
T1 sequence (P18584 17-497): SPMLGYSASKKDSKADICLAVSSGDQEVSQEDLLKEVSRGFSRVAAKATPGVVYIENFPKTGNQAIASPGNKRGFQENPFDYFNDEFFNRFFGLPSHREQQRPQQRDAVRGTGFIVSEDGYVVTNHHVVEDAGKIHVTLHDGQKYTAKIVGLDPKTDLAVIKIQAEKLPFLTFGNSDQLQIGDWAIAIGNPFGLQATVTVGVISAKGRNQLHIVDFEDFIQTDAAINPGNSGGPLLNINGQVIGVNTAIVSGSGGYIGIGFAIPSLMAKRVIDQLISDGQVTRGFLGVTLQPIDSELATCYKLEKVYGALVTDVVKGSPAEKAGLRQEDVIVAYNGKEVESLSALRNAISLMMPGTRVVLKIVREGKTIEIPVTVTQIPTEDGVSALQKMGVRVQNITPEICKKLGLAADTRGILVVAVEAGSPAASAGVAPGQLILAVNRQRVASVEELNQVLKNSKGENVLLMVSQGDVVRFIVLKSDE
Protocol: To determine if the addition of a second peptide to the protease assays could activate or increase CtHtrA proteolysis, two activator peptides were tested in the CtHtrA cleavage of the model ß-casein peptide substrate Bcas1. The first was based on the ß-casein C-terminal sequence (Act1: NH2-VLGPVRGPFPIIV-OH) and the second on insulin b chain C-terminal sequence (Act2: NH2-CGELGFFYTP-OH).
Finally, in order to determine if the 24-mer (highest amount with MOMP protein, or Act1), or 12-mer, or both, corresponds to enhanced protease activity, the incubations of CtHtrA and these potential in vivo activators were used for protease assays with the Bcas1 substrate (Fig. 6). […] The presence of the majority of CtHtrA as higher order oligomers correlated with an increased rate of proteolysis for CtHtrA, particularly when these oligomers were predominately 24-mers.
(§1) The purified recombinant protein was examined by Coomassie stained polyacrylamide gels and activity was checked using ß-casein cleavage assays prior to use in peptide assays. Briefly, this involved incubating 2 µg of the protease with 10 µg of ß-casein in 50 mM Tris pH 7.0, 20 mM MgCl2 for 2 h prior to examining the assays by SDS PAGE (ß-casein and protease only controls were always conducted). Protease assays using peptides were conducted using custom synthesised peptides (Mimotopes). […] Protease assays using pNA labelled peptides were conducted using the xMARK Microplate spectrophotometer (Bio-Rad) at 405 nm, incubated at 37°C, with a reading taken every 10 s for 30 min. The maximum slope over a minimum of 8 readings was used for the data analysis. […] The assays were excited at 340 nm and emission was detected at 405 nm with a gain of 1000, the assays were monitored every 20 s or at the minimum cycle time for up to 40 min. […] The assay results shown for the fluorescent compounds have been normalised for the amount of fluorescent emission detected using a standard curve of known concentrations of the MCA fluorophore under the identical assay conditions. […]

CtHtrA [2] = target: T1, CtHtrA; assay: MS and MS-MS analysis of peptide cleavage products; assay type: biochemical; details: data not shown
Protocol: Bcas1 and Act1 peptides (150 µM concentration) digested with CtHtrA (71 µg) were analysed by online LC/MS/MS using a QStar Pulsar I (Applied Biosystems) in […] mode. Data acquired were converted into mzXML format using proteowizard (v2) and searched using ([…], the global proteome machine, ftp://ftp.thegpm.org/fasta/cRAP), against CtHtrA and Act1 and Bcas1 peptide sequences with an included decoy database of the reverse sequence for each protein. The search also included potential mass modifications accounting for the additional […] moieties on the N and C peptide termini, respectively. Matches with an expected ratio of <1 were considered identified. All raw data and mass spectra can be made available on request.

CtHtrA I365D = assay: Act1 activation of Bcas1 proteolysis by mutated protein; assay type: biochemical, Chlamydia trachomatis; details: I365D mutant; Act1 120 µM
Description: The hexameric CtHtrA molecular model was examined to identify the putative PDZ1 activator binding cleft (Fig. 4). The base of this cleft in CtHtrA is a hydrophobic pocket formed by the residues L302 and I365 (V328 in E. coli DegP) (Fig. 4). L302 and I365 were targeted for site directed mutagenesis (L302N and I365D) to make this non-polar pocket either polar or charged. The role of a potential conformational change caused by movement of the whole PDZ1 domain relative to the protease subunit was also tested by mutating a highly conserved arginine residue (R299W) on the flexible loop between the protease and PDZ domains. This mutation was made in order to alter the flexibility around this residue while occupying a similar sized area. Additionally, a second mutation was made in conjunction with the R299W mutation on the residue R373A which potentially forms a salt bridge between the PDZ domain and protease domain. This double mutation was made in order to reduce the flexibility and disrupt the mobile salt bridge involved in the PDZ1:protease domain interface. The R373A mutation was also made independently of R299W. These mutated proteins were assayed to examine the impact of the changes on Act1 activation on the Bcas1 substrate proteolysis. […]
as §1, with “assays.” for “assays. Briefly, this involved incubating 2 µg of the protease with 10 µg of ß-casein in 50 mM Tris pH 7.0, 20 mM MgCl2 for 2 h prior to examining the assays by SDS PAGE (ß-casein and protease only controls were always conducted). Protease assays using peptides were conducted using custom synthesised peptides (Mimotopes).”

With H-VLGPVRGPFPIIV-OH [Act1] as the substance, how does the “effect of activator on rate of CtHtrA proteolysis of Bcas1” value (CtHtrA [1]) read?
The value was “greater ability of the two activators to increase the proteolysis rate; also recorded: increased proteolysis rate”.

And the “cleavage of activator peptide by CtHtrA, MALDI MS MS” value (CtHtrA [2])?
Its value is “No evidence of Act1 cleavage”.

And the “effect of Act1 on Bcas1 proteolysis rate” value (CtHtrA I365D)?
The value was “failed to increase the proteolysis rate”.
